Assay results from the supplement of paper PMC10307832.

How the values were obtained:
Experiment in all cases: relative viability (nuclei count vs DMSO), 5 days (fraction); higher = more cells survive
Tipifarnib + Pictilisib = compound: Cn1cncc1[C@@](N)(c1ccc(Cl)cc1)c1ccc2c(c1)c(-c1cccc(Cl)c1)cc(=O)n2C [Tipifarnib] + CS(=O)(=O)N1CCN(Cc2cc3nc(-c4cccc5[nH]ncc45)nc(N4CCOCC4)c3s2)CC1 [Pictilisib] (partner 1 µM)
Method in brief: (§1)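 Lung cancer cell lines were pin-tool dosed in 1536-well plates on the day after seeding, with either a lone drug or a fixed anchor-drug dose plus five library-drug doses (not always all listed) in √10 steps. Nuclei were counted on 4× images after 5 days. Relative viability is the ratio of treated-well to vehicle-well nuclei counts, with each value a median of duplicate plates.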

Tipifarnib + Linsitinib = compound: Cn1cncc1[C@@](N)(c1ccc(Cl)cc1)c1ccc2c(c1)c(-c1cccc(Cl)c1)cc(=O)n2C [Tipifarnib] + C[C@]1(O)C[C@@H](c2nc(-c3ccc4ccc(-c5ccccc5)nc4c3)c3c(N)nccn32)C1 [Linsitinib] (partner 1 µM)
Method in brief: as §1

Tipifarnib + Alpelisib = compound: Cn1cncc1[C@@](N)(c1ccc(Cl)cc1)c1ccc2c(c1)c(-c1cccc(Cl)c1)cc(=O)n2C [Tipifarnib] + Cc1nc(NC(=O)N2CCC[C@H]2C(N)=O)sc1-c1ccnc(C(C)(C)C(F)(F)F)c1 [Alpelisib] (partner 2 µM)
Method in brief: as §1

Tipifarnib + Decitabine = compound: Cn1cncc1[C@@](N)(c1ccc(Cl)cc1)c1ccc2c(c1)c(-c1cccc(Cl)c1)cc(=O)n2C [Tipifarnib] + Nc1ncn([C@H]2C[C@H](O)[C@@H](CO)O2)c(=O)n1 [Decitabine] (partner 2 µM)
Method in brief: as §1

| Cell Line | relative viability (Tipifarnib + Pictilisib; first compound 0.01 µM) | relative viability (Tipifarnib + Pictilisib; first compound 0.03162 µM) | relative viability (Tipifarnib + Pictilisib; first compound 0.1 µM) | relative viability (Tipifarnib + Pictilisib; first compound 0.3162 µM) | relative viability (Tipifarnib + Pictilisib; first compound 1 µM) | relative viability (Tipifarnib + Linsitinib; first compound 0.01 µM) | relative viability (Tipifarnib + Linsitinib; first compound 0.03162 µM) | relative viability (Tipifarnib + Linsitinib; first compound 0.1 µM) | relative viability (Tipifarnib + Linsitinib; first compound 0.3162 µM) | relative viability (Tipifarnib + Linsitinib; first compound 1 µM) | relative viability (Tipifarnib + Alpelisib; first compound 0.01 µM) | relative viability (Tipifarnib + Alpelisib; first compound 0.03162 µM) | relative viability (Tipifarnib + Alpelisib; first compound 0.1 µM) | relative viability (Tipifarnib + Alpelisib; first compound 0.3162 µM) | relative viability (Tipifarnib + Alpelisib; first compound 1 µM) | relative viability (Tipifarnib + Decitabine; first compound 0.01 µM) | relative viability (Tipifarnib + Decitabine; first compound 0.03162 µM) | relative viability (Tipifarnib + Decitabine; first compound 0.1 µM) | relative viability (Tipifarnib + Decitabine; first compound 0.3162 µM) | relative viability (Tipifarnib + Decitabine; first compound 1 µM) |
| --- | --- | --- | --- | --- | --- | --- | --- | --- | --- | --- | --- | --- | --- | --- | --- | --- | --- | --- | --- | --- |
| COR-L 105 | 0.47 | 0.33 | 0.357 | 0.353 | 0.355 | 0.88 | 0.855 | 0.674 | 0.554 | 0.668 | 1.12 | 0.891 | 0.731 | 0.46 | 0.649 | 0.635 | 0.636 | 0.478 | 0.479 | 0.473 |
| LK-2 | 0.615 | 0.5 | 0.541 | 0.305 | 0.485 | 0.499 | 0.506 | 0.399 | 0.379 | 0.487 | 1.21 | 1.06 | 0.827 | 0.544 | 0.639 | 0.375 | 0.266 | 0.276 | 0.265 | 0.139 |
| NCI-H727 | 0.625 | 0.438 | 0.484 | 0.389 | 0.444 | 0.285 | 0.334 | 0.321 | 0.3 | 0.259 | 0.683 | 0.516 | 0.569 | 0.496 | 0.513 | 0.862 | 0.811 | 0.855 | 0.765 | 0.851 |
| RERF-LC-KJ | 0.551 | 0.501 | 0.561 | 0.347 | 0.328 | 0.918 | 0.909 | 0.874 | 0.629 | 0.651 | 0.955 | 0.919 | 0.592 | 0.631 | 0.55 | 0.848 | 0.691 | 0.733 | 0.451 | 0.478 |
| NCI-H2023 | 0.238 | 0.212 | 0.203 | 0.169 | 0.159 | 0.598 | 0.503 | 0.37 | 0.329 | 0.384 | 0.595 | 0.442 | 0.391 | 0.326 | 0.334 | 0.219 | 0.2 | 0.215 | 0.176 | 0.165 |
| NCI-H322M | 0.533 | 0.543 | 0.47 | 0.464 | 0.481 | 0.934 | 0.921 | 0.96 | 0.672 | 0.853 | 0.765 | 0.816 | 0.767 | 0.741 | 0.658 | 0.713 | 0.751 | 0.631 | 0.701 | 0.666 |
| NCI-H1666 | 0.464 | 0.393 | 0.419 | 0.332 | 0.367 | 0.719 | 0.704 | 0.623 | 0.549 | 0.573 | 1 | 0.725 | 0.851 | 0.717 | 0.538 | 0.698 | 0.739 | 0.768 | 0.598 | 0.571 |
| NCI-H1648 |  |  |  |  |  |  |  |  |  |  |  |  |  |  |  | 0.603 | 0.48 | 0.608 | 0.51 | 0.338 |
| NCI-H2087 | 0.796 | 0.682 | 0.587 | 0.427 | 0.385 | 0.797 | 0.583 | 0.514 | 0.5 | 0.447 | 1.17 | 0.635 | 0.3 | 0.371 | 0.406 | 0.348 | 0.262 | 0.259 | 0.205 | 0.206 |
| LU99A | 0.29 | 0.264 | 0.219 | 0.208 | 0.193 | 0.563 | 0.477 | 0.299 | 0.257 | 0.272 | 0.442 | 0.36 | 0.297 | 0.261 | 0.238 | 0.982 | 0.6 | 0.481 | 0.456 | 0.399 |
| HCC-366 | 0.145 | 0.133 | 0.0968 | 0.0769 | 0.0755 | 0.619 | 0.487 | 0.343 | 0.206 | 0.0767 | 0.559 | 0.47 | 0.272 | 0.159 | 0.0543 | 0.345 | 0.337 | 0.19 | 0.174 | 0.16 |
| EKVX | 0.477 | 0.4 | 0.455 | 0.339 | 0.355 | 1.06 | 1.11 | 0.972 | 0.755 | 0.657 | 0.895 | 0.883 | 0.83 | 0.595 | 0.652 | 0.299 | 0.34 | 0.261 | 0.289 | 0.275 |
| NCI-H522 |  |  |  |  |  |  |  |  |  |  |  |  |  |  |  | 0.657 | 0.725 | 0.582 | 0.586 | 0.592 |
| NCI-H1755 | 0.466 | 0.358 | 0.423 | 0.344 | 0.274 | 0.995 | 0.957 | 0.928 | 0.913 | 0.897 | 0.916 | 0.848 | 0.868 | 0.804 | 0.808 | 0.726 | 0.761 | 0.739 | 0.746 | 0.741 |
| NCI-H647 | 0.403 | 0.416 | 0.364 | 0.406 | 0.167 | 1.35 | 1.04 | 0.649 | 0.557 | 0.609 | 1.05 | 0.822 | 0.838 | 0.44 | 0.488 | 0.453 | 0.305 | 0.261 | 0.185 | 0.186 |
| LC-2-ad | 0.515 | 0.371 | 0.255 | 0.325 | 0.191 | 0.756 | 0.705 | 0.487 | 0.448 | 0.369 | 0.829 | 0.54 | 0.375 | 0.411 | 0.321 | 0.871 | 0.913 | 0.77 | 0.802 | 0.641 |
| NCI-H1793 | 0.446 | 0.256 | 0.307 | 0.247 | 0.265 | 0.983 | 0.577 | 0.737 | 0.751 | 0.576 | 0.811 | 0.691 | 0.565 | 0.453 | 0.396 | 0.555 | 0.427 | 0.374 | 0.338 | 0.365 |
| HCC-827 | 0.955 | 0.905 | 0.775 | 0.653 | 0.675 | 0.828 | 0.918 | 0.805 | 0.639 | 0.6 | 1.04 | 1.03 | 0.767 | 0.626 | 0.667 | 0.324 | 0.333 | 0.293 | 0.293 | 0.259 |
